Test system: patient-derived mantle cell lymphoma (MCL) cells (DFBL-96069)
Assay: Patient-derived xenograft MCL mouse model
Type: in vivo
Conditions: NSG mice grafted with MCL cells, IP, QD, 50 mg/kg, two weeks; FIG. 5
Protocol: NSG Mice were grafted with patient-derived mantle cell lymphoma (MCL) cells (DFBL-96069). Once burden of disease reached ˜2%, treatment began with indicated compounds: vehicle (IP, BID), Compound I-1 (IP, QD, 50 mg/kg), lenalidomide (IP, QD, 50 mg/kg), and ibrutinib (PO, QD, 30 mg/kg). Mice were treated for two weeks and 4-6 hours after the last dose, peripheral blood was taken and quantified for disease burden via flow cytometry.

## Cc1c(NC(=O)c2ccc(C(C)(C)C)cc2)cccc1-c1cn(C)c(=O)c(Nc2ccc(C(=O)N3CCN(CCCCCCNC(=O)CNc4cccc5c4C(=O)N(C4CCC(=O)NC4=O)C5=O)CC3)cc2)n1 (stereo not shown) [II-1]
  Efficacy (disease burden in peripheral blood via flow cytometry): showed efficacy
